Experiments:
HOP-62 = test: Growth of human HOP62 cells at 10 uM incubated for 48 hrs by sulforhodamine B assay relative to control; conditions: HOP-62, 48 h
PC-3 = test: Growth inhibition of human PC3 cells at 10 uM incubated for 48 hrs by sulforhodamine B assay relative to control; format: functional; conditions: PC-3, 48 h, values are per cent of control
ACHN = test: Growth inhibition of human ACHN cells at 10 uM incubated for 48 hrs by sulforhodamine B assay relative to control; format: functional; conditions: values are per cent of control
NCI-H322M = test: Growth inhibition of human NCI-H322M cells at 10 uM incubated for 48 hrs by sulforhodamine B assay relative to control; format: functional; conditions: values are per cent of control
RPMI-8226 = test: Growth of human RPMI8226 cells at 10 uM incubated for 48 hrs by sulforhodamine B assay relative to control; conditions: RPMI-8226, 48 h
NCI-H23 = test: Growth inhibition of human NCI-H23 cells at 10 uM incubated for 48 hrs by sulforhodamine B assay relative to control; format: functional; conditions: NCI-H23, 48 h, values are per cent of control
HT-29 = test: Growth of human HT-29 cells at 10 uM incubated for 48 hrs by sulforhodamine B assay relative to control; conditions: HT-29, 48 h
SN12C = test: Growth inhibition of human SN12C cells at 10 uM incubated for 48 hrs by sulforhodamine B assay relative to control; format: functional; conditions: values are per cent of control
A498 = test: Growth inhibition of human A498 cells at 10 uM incubated for 48 hrs by sulforhodamine B assay relative to control; format: functional; conditions: A498, 48 h, values are per cent of control
MOLT-4 = test: Growth of human MOLT4 cells at 10 uM incubated for 48 hrs by sulforhodamine B assay relative to control; conditions: MOLT-4, 48 h
SK-MEL-28 = test: Growth of human SK-MEL-28 cells at 10 uM incubated for 48 hrs by sulforhodamine B assay relative to control; conditions: SK-MEL-28, 48 h
HL-60(TB) = test: Growth inhibition of human HL-60(TB) cells at 10 uM incubated for 48 hrs by sulforhodamine B assay relative to control; format: functional; conditions: HL-60, 48 h, values are per cent of control
SF-268 = test: Growth of human SF268 cells at 10 uM incubated for 48 hrs by sulforhodamine B assay relative to control; conditions: SF-268, 48 h
BT-549 = test: Growth inhibition of human BT549 cells at 10 uM incubated for 48 hrs by sulforhodamine B assay relative to control; format: functional; conditions: BT-549, 48 h, values are per cent of control
MDA-MB-435 = test: Growth of human MDA-MB-435 cells at 10 uM incubated for 48 hrs by sulforhodamine B assay relative to control; conditions: MDA-MB-435, 48 h
OVCAR-4 = test: Growth of human OVCAR4 cells at 10 uM incubated for 48 hrs by sulforhodamine B assay relative to control; conditions: OVCAR-4, 48 h
OVCAR-5 = test: Growth of human OVCAR5 cells at 10 uM incubated for 48 hrs by sulforhodamine B assay relative to control; conditions: OVCAR-5, 48 h
NCI-H460 = test: Growth inhibition of human NCI-H460 cells at 10 uM incubated for 48 hrs by sulforhodamine B assay relative to control; format: functional; conditions: NCI-H460, 48 h, values are per cent of control
TK-10 = test: Growth inhibition of human TK10 cells at 10 uM incubated for 48 hrs by sulforhodamine B assay relative to control; format: functional; conditions: TK-10, 48 h, values are per cent of control
MDA-MB-231 = test: Growth inhibition of human MDA-MB-231 cells at 10 uM incubated for 48 hrs by sulforhodamine B assay relative to control; format: functional; conditions: MDA-MB-231, 48 h, values are per cent of control
CAKI-1 = test: Growth inhibition of human Caki1 cells at 10 uM incubated for 48 hrs by sulforhodamine B assay relative to control; format: functional; conditions: CAKI-1, 48 h, values are per cent of control
SR = test: Growth of human SR cells at 10 uM incubated for 48 hrs by sulforhodamine B assay relative to control
K562 = test: Growth of human K562 cells at 10 uM incubated for 48 hrs by sulforhodamine B assay relative to control; conditions: K562, 48 h
KM12 = test: Growth of human KM12 cells at 10 uM incubated for 48 hrs by sulforhodamine B assay relative to control; conditions: KM12, 48 h
NCI-H522 = test: Growth of human NCI-H522 cells at 10 uM incubated for 48 hrs by sulforhodamine B assay relative to control; conditions: NCI-H522, 48 h
HCT-116 = test: Growth of human HCT116 cells at 10 uM incubated for 48 hrs by sulforhodamine B assay relative to control; conditions: HCT-116, 48 h
SF-539 = test: Growth of human SF539 cells at 10 uM incubated for 48 hrs by sulforhodamine B assay relative to control; conditions: SF-539, 48 h
UO-31 = test: Growth inhibition of human UO31 cells at 10 uM incubated for 48 hrs by sulforhodamine B assay relative to control; format: functional; conditions: UO-31, 48 h, values are per cent of control
EKVX = test: Growth of human EKVX cells at 10 uM incubated for 48 hrs by sulforhodamine B assay relative to control
HCT-15 = test: Growth of human HCT15 cells at 10 uM incubated for 48 hrs by sulforhodamine B assay relative to control; conditions: HCT-15, 48 h
HOP-92 = test: Growth inhibition of human HOP92 cells at 10 uM incubated for 48 hrs by sulforhodamine B assay relative to control; format: functional; conditions: HOP-92, 48 h, values are per cent of control
IGROV-1 = test: Growth of human IGROV1 cells at 10 uM incubated for 48 hrs by sulforhodamine B assay relative to control; conditions: IGROV-1, 48 h
SNB-19 = test: Growth of human SNB19 cells at 10 uM incubated for 48 hrs by sulforhodamine B assay relative to control; conditions: SNB-19, 48 h

## CCS/C(Nc1ccccc1)=C(\C#N)C(=O)N/N=C\c1ccc(Cl)cc1Cl
HOP-62
  growth, % of control at 10 µM: 36.7%
PC-3
  growth, % of control at 10 µM: 31.5%
ACHN
  growth, % of control at 10 µM: 38.2%
NCI-H322M
  growth, % of control at 10 µM: 70.9%
RPMI-8226
  growth, % of control at 10 µM: 9.68%
NCI-H23
  growth, % of control at 10 µM: 41.3%
HT-29
  growth, % of control at 10 µM: 9.53%
SN12C
  growth, % of control at 10 µM: 34.5%
A498
  growth, % of control at 10 µM: -2.1%
MOLT-4
  growth, % of control at 10 µM: 18.3%
SK-MEL-28
  growth, % of control at 10 µM: 60.5%
HL-60(TB)
  growth, % of control at 10 µM: -31.4%
SF-268
  growth, % of control at 10 µM: 34%
BT-549
  growth, % of control at 10 µM: 45.4%
MDA-MB-435
  growth, % of control at 10 µM: -34.5%
OVCAR-4
  growth, % of control at 10 µM: 56.5%
OVCAR-5
  growth, % of control at 10 µM: 72.5%
NCI-H460
  growth, % of control at 10 µM: 8.05%
TK-10
  growth, % of control at 10 µM: 56.7%
MDA-MB-231
  growth, % of control at 10 µM: 39%
CAKI-1
  growth, % of control at 10 µM: 31.5%
SR
  growth, % of control at 10 µM: 19.5%
K562
  growth, % of control at 10 µM: 7.35%
KM12
  growth, % of control at 10 µM: 28%
NCI-H522
  growth, % of control at 10 µM: 1.02%
HCT-116
  growth, % of control at 10 µM: 17.5%
SF-539
  growth, % of control at 10 µM: 4.25%
UO-31
  growth, % of control at 10 µM: 41.9%
EKVX
  growth, % of control at 10 µM: 47.4%
HCT-15
  growth, % of control at 10 µM: 19.9%
HOP-92
  growth, % of control at 10 µM: 29.2%
IGROV-1
  growth, % of control at 10 µM: 49.1%
SNB-19
  growth, % of control at 10 µM: 19.6%

## CCS/C(Nc1ccccc1)=C(\C#N)C(=O)Nc1ccccc1
HOP-62
  growth, % of control at 10 µM: 93.1%
PC-3
  growth, % of control at 10 µM: 92.4%
ACHN
  growth, % of control at 10 µM: 102%
NCI-H322M
  growth, % of control at 10 µM: 97.2%
RPMI-8226
  growth, % of control at 10 µM: 79.2%
NCI-H23
  growth, % of control at 10 µM: 94.3%
HT-29
  growth, % of control at 10 µM: 88.2%
SN12C
  growth, % of control at 10 µM: 94%
A498
  growth, % of control at 10 µM: 76.2%
MOLT-4
  growth, % of control at 10 µM: 69.2%
SK-MEL-28
  growth, % of control at 10 µM: 112%
HL-60(TB)
  growth, % of control at 10 µM: 58.1%
SF-268
  growth, % of control at 10 µM: 91.2%
BT-549
  growth, % of control at 10 µM: 103%
MDA-MB-435
  growth, % of control at 10 µM: 110%
OVCAR-4
  growth, % of control at 10 µM: 102%
OVCAR-5
  growth, % of control at 10 µM: 96.5%
NCI-H460
  growth, % of control at 10 µM: 99.5%
TK-10
  growth, % of control at 10 µM: 76.7%
MDA-MB-231
  growth, % of control at 10 µM: 94.2%
CAKI-1
  growth, % of control at 10 µM: 87.5%
SR
  growth, % of control at 10 µM: 70.3%
K562
  growth, % of control at 10 µM: 89.9%
KM12
  growth, % of control at 10 µM: 90%
NCI-H522
  growth, % of control at 10 µM: 65.7%
HCT-116
  growth, % of control at 10 µM: 92.7%
SF-539
  growth, % of control at 10 µM: 104%
UO-31
  growth, % of control at 10 µM: 76%
EKVX
  growth, % of control at 10 µM: 100%
HCT-15
  growth, % of control at 10 µM: 93.7%
HOP-92
  growth, % of control at 10 µM: 53%
IGROV-1
  growth, % of control at 10 µM: 105%
SNB-19
  growth, % of control at 10 µM: 91.2%

## CC(C)(C)S/C(Nc1ccccc1)=C(\C#N)C(=O)N/N=C\c1ccc(Cl)cc1Cl
HOP-62
  growth, % of control at 10 µM: 98.1%
PC-3
  growth, % of control at 10 µM: 96.3%
ACHN
  growth, % of control at 10 µM: 105%
NCI-H322M
  growth, % of control at 10 µM: 99.8%
RPMI-8226
  growth, % of control at 10 µM: 98.7%
NCI-H23
  growth, % of control at 10 µM: 92.5%
HT-29
  growth, % of control at 10 µM: 92.6%
SN12C
  growth, % of control at 10 µM: 101%
A498
  growth, % of control at 10 µM: 101%
MOLT-4
  growth, % of control at 10 µM: 86.2%
SK-MEL-28
  growth, % of control at 10 µM: 108%
HL-60(TB)
  growth, % of control at 10 µM: 89.2%
SF-268
  growth, % of control at 10 µM: 99.7%
BT-549
  growth, % of control at 10 µM: 97%
MDA-MB-435
  growth, % of control at 10 µM: 104%
OVCAR-4
  growth, % of control at 10 µM: 112%
OVCAR-5
  growth, % of control at 10 µM: 106%
NCI-H460
  growth, % of control at 10 µM: 101%
TK-10
  growth, % of control at 10 µM: 99.1%
MDA-MB-231
  growth, % of control at 10 µM: 96.8%
CAKI-1
  growth, % of control at 10 µM: 98.4%
SR
  growth, % of control at 10 µM: 70%
K562
  growth, % of control at 10 µM: 91.8%
KM12
  growth, % of control at 10 µM: 102%
NCI-H522
  growth, % of control at 10 µM: 82.7%
HCT-116
  growth, % of control at 10 µM: 88%
SF-539
  growth, % of control at 10 µM: 98%
UO-31
  growth, % of control at 10 µM: 82.7%
EKVX
  growth, % of control at 10 µM: 101%
HCT-15
  growth, % of control at 10 µM: 102%
HOP-92
  growth, % of control at 10 µM: 94.1%
IGROV-1
  growth, % of control at 10 µM: 98.7%
SNB-19
  growth, % of control at 10 µM: 97.5%

From ChEMBL document CHEMBL4145553, “Design, synthesis, and biological evaluation of novel amide and hydrazide based thioether analogs targeting Histone deacteylase (HDAC) enzymes” (Eur J Med Chem, 2018)
